In patent US7875601B2, “Cancer treatment with epothilones” (Novartis AG, priority 1998, dated 2011):
“And” between values parts separate entries of the source, which are not always exact repeats. Equal values may be shown once. Read-outs that look alike come from different tables or passages of the source. Marks after values point to notes of the source that are not given here.

Columns and labels:
[1] = system: human PC-3M prostate carcinoma cells; experiment: Antitumor effect against orthotopically injected PC-3M cells; format: in vivo, male BALB/c nude mice; conditions: for Tumor Response (T/C %) Lymph Nodes / Tumor Response (T/C %) Prostate: day 42
Experimental: A human androgen-independent prostate cancer cell line is used to establish subcutaneous and orthotopic models in mice. The human metastatic prostate carcinoma PC-3M is obtained from Dr. I. J. Fidler (MD Anderson Cancer Center, Houston, Tex., USA) and is cultured in Ham's F12K media supplemented with 7% v/v FBS. The PC-3M cell line is the result of isolation from liver metastasis produced in nude mice subsequent to intrasplenic injection of PC-3 cells [ATCC CRL 1435; American Type Culture Collection (Rockville, Md., USA)], and they can grow in Eagle's MEM supplemented with 10% fetal bovine serum, sodium pyruvate, non-essential amino acids, L-glutamine, a two-fold vitamin solution (Gibco Laboratories, Long Island, N.Y.) and penicillin-streptomycin (Flow Laboratories, Rockville, Md.). The PC-3M cell line is hormone-insensitive (that is, it grows in the absence of androgens). The PC-3 cell line is androgen receptor negative, as is presumably the derived PC-3M cell line. […] The cells are near-triploid with a modal number of 62 chromosomes. No normal Y chromosomes can be detected by Q-band analysis.
Human prostate carcinoma PC-3M cells (1×10^6 cells per 20 μl phosphate buffered saline) are injected into the left […] of the prostate of each animal (n=6-9/group) according the method previously described (see Stephenson et al., J. Natl. Cancer Inst. 84, 951-7 (1992)). Treatment is started on day 14 after cell injection. At this time point a mean tumor weight of ˜20 mg is established. Epothilone B is administered either once or once weekly. Mice are sacrificed 42 days post tumor inoculation, and the prostates are carefully removed, dissected free of adhering tissue and weighed. […] Mesenteric lymph nodes are examined for the presence of metastases, dissected free of adhering tissue and weighed.
Tumor weight and body weights are monitored once or twice weekly. All treatments are administered intravenously (i.v.) and are initiated 14 days post cell injection. Treatment with epothilone B varies the dose and frequency of administration. Antitumor activity is expressed as T/C % (mean tumor weight of treated animals divided by the mean tumor weight of control animals multiplied by 100).

[2] = system: human KB-8511 epidermoid carcinoma; format: in vivo, female BALB/c nude mice; conditions: for % Body Weight Change / D Body Weight / D Tumor Volume (mm^3): mean ± SEM
Experimental: The human epidermal (mouth) carcinoma cell line KB-8511 (a P-gp over-expressing cell line derived from the epidermoid (mouth) KB-31 carcinoma cell line) is obtained from Dr. R. M. Baker, Roswell Park Memorial Institute (Buffalo, N.Y., USA) (for description see Akiyama et al., Somat. Cell. Mol. Genetics 11, 117-126 (1985) and Fojo A., et al., Cancer Res. 45, 3002-3007 (1985)) and is cultured as previously described (Meyer, T., et al., Int. J. Cancer 43 851-856 (1989)).
Female or male BALB/c nu/nu (nude) mice are kept under sterile conditions (10 to 12 mice per Type III cage) with free access to food and water. Mice weigh between 20 and 25 grams at the time of tumor implantation. Tumors are established by subcutaneous injection of cells (minimum 2×10^6 cells in 100 μl PBS or medium) in carrier mice (4-8 mice per cell line). The resulting tumors are serially passaged for a minimum of three consecutive transplantations prior to start of treatment. Tumor fragments (approx. 25 mg) are implanted s.c. into the left flank of animals with a 13-gauge trocar needle while the mice are exposed to Forene (Abbott, Switzerland) anesthesia.
Tumor growth and body weights are monitored once or twice weekly. All treatments are administered intravenously (i.v.) and are initiated when a mean tumor volume of approximately 100 to 250 mm^3 is attained, depending upon the tumor type. Tumor volumes are determined using the formula […] (see Cancer Chemother. Pharmacol. 24:148-154, [1989]). Treatments with epothilone B vary the dose and the frequency of administration. Comparator agents are administered according to previously determined optimal treatment regimens. In addition to presenting changes in tumor volumes over the course of treatment, antitumor activity is expressed as T/C % (mean increase of tumor volumes of treated animals divided by the mean increase of tumor volumes of control animals multiplied by 100). Tumor. regression (%) represents the smallest mean tumor volume compared to the mean tumor volume at the start of treatment, according to the formula Regression (%)=(1−Vend/Vstart)×100(Vend=final mean tumor volume, Vstart=mean tumor volume at the start of treatment. Any animals in which the tumor has reached a size exceeding approximately 1.5 to 2.5 cm^3 are sacrificed. Details can be found below.

[3] = system: A549 non small cell lung tumors; experiment: Antitumor activity on A549 tumors, regimen comparison (Example 7); conditions: for % Regression / % T/C / Delta % Body Weight / Delta Mean Tumor Vol. (mm^3): day 37
Experimental: 3-10 million cells are implanted s.c. into the right axillary (lateral) region of outbred athymic (nu/nu) mice, and are allowed to grow until a tumor volume of approximately 100 mm^3 is established. […] Positive controls are carried out with clinical formulations of TAXOL® diluted 6 fold with D5W and administered i.v. 3×/week.
Antitumor activity is expressed as % T/C (comparing Δ tumor volumes for treatment group to vehicle control group) at the end of the experiment. Regressions are calculated using the formula: −(T/T0−1)×100%, where T is the tumor volume for the treatment group at the end of the experiment, and T0 is the tumor volume at the beginning of the experiment. Statistical significance is evaluated using a one-tailed Student's t-test.

## C/C(=C\c1csc(C)n1)[C@@H]1C[C@@H]2O[C@]2(C)CCC[C@H](C)[C@H](O)[C@@H](C)C(=O)C(C)(C)[C@@H](O)CC(=O)O1 [epothilone B]
[1]; 4 mg/kg, i.v. once per week
  % Body Weight Change: −1 ± 5%
  Survival (No. alive/total): 8/9
  Δ Body Weight: -1.2 ± 2.3 g
  Tumor Response (T/C %) Lymph Nodes: 4%
  Tumor Response (T/C %) Prostate: 2%
[1]; 5 mg/kg, i.v. once per week
  % Body Weight Change: −25 ± 5%
  Survival (No. alive/total): 7/9
  Δ Body Weight: -6.8 ± 1.5 g
  Tumor Response (T/C %) Lymph Nodes: 4%
  Tumor Response (T/C %) Prostate: 1%
[1]; 6 mg/kg, i.v. once
  % Body Weight Change: −6 ± 12%
  Survival (No. alive/total): 9/9
  Δ Body Weight: -1.4 ± 4.1 g
  Tumor Response (T/C %) Lymph Nodes: 4%
  Tumor Response (T/C %) Prostate: 5%
[1]; 8 mg/kg, i.v. once
  % Body Weight Change: −13 ± 15%
  Survival (No. alive/total): 7/9
  Δ Body Weight: -5.2 ± 4.3 g
  Tumor Response (T/C %) Lymph Nodes: 4%
  Tumor Response (T/C %) Prostate: 1%
[1]; in each of the epothilone B treatment groups, all animals in vehicle controls
  animals with detectable metastases: one
[2]; 1 mg/kg, i.v. once per week
  Regression: none
  Survival (No. alive/total): 8/8
  % Body Weight Change: 12 ± 1%
  D Body Weight: 2.6 ± 0.3 g
  D Tumor Volume (mm^3): 1620 ± 290 mm^3
[2]; 1 mg/kg, i.v. once per week, final
  T/C: 81%
[2]; 2 mg/kg, i.v. once per week
  Survival (No. alive/total): 8/8
  % Body Weight Change: 5 ± 2%
  D Body Weight: 1.1 ± 0.4 g
  D Tumor Volume (mm^3): 289 ± 204 mm^3
[2]; 2 mg/kg, i.v. once per week, final
  T/C: 14%
[2]; 2 mg/kg/week
  mice with undetectable tumors at the end of the experiment: ⅛
[2]; 4 mg/kg, i.v. once on day 13
  Survival (No. alive/total): 8/8
  % Body Weight Change: 3 ± 2%
  D Body Weight: 0.6 ± 0.6 g
  D Tumor Volume (mm^3): 484 ± 103 mm^3
[2]; 4 mg/kg, i.v. once on day 13, final
  T/C: 24%
[2]; 4 mg/kg, i.v. once on day 13, transient, day 25 post transplantation
  Regression: −51%
[2]; 4 mg/kg, i.v. once per week
  Survival (No. alive/total): 8/8
  % Body Weight Change: −5±7% and −5 ± 3%
  D Body Weight: -1.1 ± 0.4 g
  D Tumor Volume (mm^3): −107 ± 14 mm^3
[2]; 4 mg/kg, i.v. once per week (days 13, 21 and 27)
  T/C: Regression
[2]; 4 mg/kg/week
  mice with undetectable tumors at the end of the experiment: ⅝
[3]; 0.5 mg/kg i.v. 5x/week
  Dead/Total: 0/8
  % Regression: none
  % T/C: 41** %
  Delta % Body Weight: −23.1%
  Delta Mean Tumor Vol. (mm^3): 178 mm^3
[3]; 0.5 mg/kg i.v. 5x/week, listed as Epothilone B
  % T/C: 41%
[3]; 0.5 mg/kg, 5×/week
  body weight loss: 23%
[3]; 1.5 mg/kg i.v. 3x/week
  Dead/Total: 8/8
[3]; 1.5 mg/kg i.v. 3x/week, listed as Epothilone B
  Dead/Total: all animals have to be euthanatized
[3]; 4 mg/kg administered 1×/week
  body weight loss: 13%
[3]; 4 mg/kg i.v. 1x/week
  Dead/Total: 0/8
  % Regression: none
  % T/C: 7** %
  Delta % Body Weight: −13.2%
  Delta Mean Tumor Vol. (mm^3): 32 mm^3
[3]; 4 mg/kg i.v. 1x/week, listed as Epothilone B
  % T/C: 7%
[3]; 6 mg/kg i.v. once (day 16)
  Dead/Total: 0/8
  % Regression: none
  % T/C: 41** %
  Delta % Body Weight: +8.5%
  Delta Mean Tumor Vol. (mm^3): 178 mm^3
[3]; 6 mg/kg i.v. once (day 16), listed as Epothilone B
  % T/C: 41%
